Laboratory results as given in ChEMBL document CHEMBL1138709, “Biological evaluation of novel estrogen-platinum(II) hybrid molecules on uterine and ovarian cancers-molecular modeling studies” (Bioorg Med Chem Lett, 2004).

Experiments:
[1] = target: T1, Estrogen receptor (Homo sapiens, UniProt Q92731+P03372); assay: Inhibition of estrogen dependent human uterus cancer Ishikawa cell proliferation; type: functional, cell-based
[2] = inhibitory concentration against estrogen independent human uterus cancer cell line HEC-1-A; type: functional, cell-based; details: cancer cell lines
[3] = target: T1, Estrogen receptor; assay: Inhibition of estrogen dependent human uterus cancer RL-95-2 cell proliferation; type: functional
[4] = target: T1, Estrogen receptor; assay: Inhibition of estrogen dependent human ovarian cancer SKOV-3 cell proliferation; type: functional, cell-based; details: sk-ov-3
[5] = system: A2780; assay: inhibitory concentration against estrogen independent human ovarian cancer cell line A2780wt; type: functional, cell-based
[6] = system: A2780; assay: inhibitory concentration against estrogen independent human ovarian cancer cell line A2780cp; type: functional, cell-based
[7] = inhibitory concentration against estrogen independent human uterus cancer cell line KLE; type: functional, cell-based; details: cancer cell lines
[8] = system: HeLa; assay: inhibitory concentration against estrogen independent human uterus cancer cell line HeLa; type: functional, cell-based
[9] = target: T1, Estrogen receptor; assay: Inhibition of estrogen dependent human ovarian cancer OVCAR-3 cell proliferation; type: functional, cell-based

IC50 [1]: 7.9 µM | IC50 [2]: 11.7 µM | IC50 [3]: 10.3 µM | IC50 [4]: 5.8 µM | IC50 [5]: 0.7 µM | IC50 [6]: 6.5 µM | IC50 [7]: 12.5 µM | IC50 [8]: 3.6 µM | IC50 [9]: 2.5 µM
Sequence: CISPLATIN
